Assay results published in ChEMBL document CHEMBL1909046, “DrugMatrix in vitro pharmacology data”.

Assays:
[1] = DRUGMATRIX: Sodium/nucleoside co-transporter radioligand binding (ligand: nitrobenzylthioinosine); type: cell membranes, Cavia porcellus, Dunkin-Hartley, Cerebral cortex, Membrane; settings: Not Active = under 50% inhibition at 10 µM
[2] = DRUGMATRIX: Atrial Natriuretic Factor (ANF) radioligand binding (ligand: [125I] ANF (rat)); type: cell membranes, Cavia porcellus, Dunkin-Hartley, Adrenal gland, Membrane; settings: Not Active = under 50% inhibition at 10 µM
[3] = DRUGMATRIX: beta-Lactamase enzyme inhibition (substrate: Nitrocefin); design: species or system Bacillus cereus; settings: Not Active = under 50% inhibition at 10 µM
[4] = DRUGMATRIX: Serotonin (5-Hydroxytryptamine) 5-HT3 radioligand binding (ligand: [3H] GR-65630); type: cell membranes, Membrane; settings: hek293; Not Active = under 50% inhibition at 10 µM
[5] = DRUGMATRIX: GABAA, Muscimol, Central radioligand binding (ligand: [3H] Muscimol); type: cell membranes, Rattus norvegicus, Wistar, Brain, Membrane; settings: Not Active = under 50% inhibition at 10 µM
[6] = DRUGMATRIX: Glutamate, Kainate radioligand binding (ligand: [3H] Kainic acid); type: cell membranes, Rattus norvegicus, Wistar, Brain, Membrane; settings: Not Active = under 50% inhibition at 10 µM
[7] = DRUGMATRIX: Nicotinic Acetylcholine radioligand binding (ligand: [125I] Epibatidine); type: cell membranes, Membrane; settings: imr-32; Not Active = under 50% inhibition at 10 µM
[8] = DRUGMATRIX: Phosphodiesterase PDE4 enzyme inhibition (substrate: [3H]cAMP + cAMP); settings: u-937; Not Active = under 50% inhibition at 10 µM
[9] = target: Cytochrome P450 2C19 (Homo sapiens, UniProt P33261); settings: bti-tn-5b1-4; further: in other assays of this panel Not Active means under 50% inhibition at 10 µM
Cytochrome P450 2C19, sequence (P33261 whole entry): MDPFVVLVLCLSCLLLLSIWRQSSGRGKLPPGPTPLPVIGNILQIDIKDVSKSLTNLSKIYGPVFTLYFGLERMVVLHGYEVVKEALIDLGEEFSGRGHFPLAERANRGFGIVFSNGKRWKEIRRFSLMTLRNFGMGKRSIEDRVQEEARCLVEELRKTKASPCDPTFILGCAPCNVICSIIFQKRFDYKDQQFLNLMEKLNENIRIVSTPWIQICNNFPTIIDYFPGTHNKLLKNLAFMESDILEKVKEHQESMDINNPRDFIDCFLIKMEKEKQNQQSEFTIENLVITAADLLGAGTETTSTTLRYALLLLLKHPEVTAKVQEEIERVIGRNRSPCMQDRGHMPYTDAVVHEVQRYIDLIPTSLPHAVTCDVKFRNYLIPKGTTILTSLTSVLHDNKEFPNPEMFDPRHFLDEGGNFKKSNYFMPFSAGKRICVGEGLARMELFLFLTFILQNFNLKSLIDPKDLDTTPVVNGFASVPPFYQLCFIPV

CC(=N)S [THIOACETAMIDE]
Not Active: IC50 [1] | Ki [1] | IC50 [2] | Ki [2] | IC50 [3] | Ki [3] | IC50 [4] | Ki [4] | IC50 [5] | Ki [5] | IC50 [6] | Ki [6] | IC50 [7] | Ki [7] | IC50 [8] | Ki [8] | IC50 [9] | Ki [9]

O=C1C[C@@H]2OCC=C3CN4CC[C@]56c7ccccc7N1[C@H]5[C@H]2[C@H]3C[C@H]46 [STRYCHNINE]
Not Active: IC50 [1] | Ki [1] | IC50 [2] | Ki [2] | IC50 [3] | Ki [3] | IC50 [4] | Ki [4] | IC50 [5] | Ki [5] | IC50 [6] | Ki [6] | IC50 [7] | Ki [7] | IC50 [8] | Ki [8] | IC50 [9] | Ki [9]

Nc1ccc(S(=O)(=O)NC(=O)c2ccccc2)cc1 [SULFABENZAMIDE]
Not Active: IC50 [1] | Ki [1] | IC50 [2] | Ki [2] | IC50 [3] | Ki [3] | IC50 [4] | Ki [4] | IC50 [5] | Ki [5] | IC50 [6] | Ki [6] | IC50 [7] | Ki [7] | IC50 [8] | Ki [8] | IC50 [9] | Ki [9]

CC(=O)OCC(COC(C)=O)OC(C)=O [TRIACETIN]
Not Active: IC50 [1] | Ki [1] | IC50 [2] | Ki [2] | IC50 [3] | Ki [3] | IC50 [4] | Ki [4] | IC50 [5] | Ki [5] | IC50 [6] | Ki [6] | IC50 [7] | Ki [7] | IC50 [8] | Ki [8] | IC50 [9] | Ki [9]

CCCCC(=O)N(Cc1ccc(-c2ccccc2-c2nnn[nH]2)cc1)[C@H](C(=O)O)C(C)C
Not Active: IC50 [1] | Ki [1] | IC50 [2] | Ki [2] | IC50 [3] | Ki [3] | IC50 [4] | Ki [4] | IC50 [5] | Ki [5] | IC50 [6] | Ki [6] | IC50 [7] | Ki [7] | IC50 [8] | Ki [8] | IC50 [9] | Ki [9]

OCCOCCN1CCN(C2=Nc3ccccc3Sc3ccccc32)CC1 [QUETIAPINE]
Not Active: IC50 [9] | Ki [9]

CC1CCC(NC(=O)N(CCCl)N=O)CC1 (stereo not drawn) [SEMUSTINE]
Not Active: IC50 [1] | Ki [1] | IC50 [2] | Ki [2] | IC50 [3] | Ki [3] | IC50 [4] | Ki [4] | IC50 [5] | Ki [5] | IC50 [6] | Ki [6] | IC50 [7] | Ki [7] | IC50 [8] | Ki [8] | IC50 [9] | Ki [9]

O=C(O)CCCCC1CCSS1 (stereo not drawn) [LIPOIC ACID, ALPHA]
Not Active: IC50 [1] | Ki [1] | IC50 [2] | Ki [2] | IC50 [3] | Ki [3] | IC50 [4] | Ki [4] | IC50 [5] | Ki [5] | IC50 [6] | Ki [6] | IC50 [7] | Ki [7] | IC50 [8] | Ki [8] | IC50 [9] | Ki [9]

CCCCCCCCNC(C)C(O)c1ccc(SC(C)C)cc1 (stereo not drawn) [SULOCTIDIL]
Not Active: IC50 [1] | Ki [1] | IC50 [3] | Ki [3] | IC50 [4] | Ki [4] | IC50 [5] | Ki [5] | IC50 [6] | Ki [6] | IC50 [8] | Ki [8] | IC50 [9] | Ki [9]

COC(=O)[C@H]1[C@H]2C[C@@H]3c4[nH]c5cc(OC)ccc5c4CCN3C[C@H]2C[C@@H](OC(=O)c2cc(OC)c(OC)c(OC)c2)[C@@H]1OC [RESERPINE]
Not Active: IC50 [1] | Ki [1] | IC50 [2] | Ki [2] | IC50 [3] | Ki [3] | IC50 [4] | Ki [4] | IC50 [5] | Ki [5] | IC50 [6] | Ki [6] | IC50 [7] | Ki [7] | IC50 [8] | Ki [8] | IC50 [9] | Ki [9]

O=c1[nH]c(=O)n(C2CCCO2)cc1F (stereo not drawn) [TEGAFUR]
Not Active: IC50 [1] | Ki [1] | IC50 [2] | Ki [2] | IC50 [3] | Ki [3] | IC50 [4] | Ki [4] | IC50 [5] | Ki [5] | IC50 [6] | Ki [6] | IC50 [7] | Ki [7] | IC50 [8] | Ki [8] | IC50 [9] | Ki [9]
